Data published in ChEMBL document CHEMBL4270502, “From bench (laboratory) to bed (hospital/home): How to explore effective natural and synthetic PAK1-blockers/longevity-promoters for cancer therapy” (Eur J Med Chem, 2017).
Values belong to the compound of their own block, whether it stands above or below them.

Assays:
A549 [1] = test: Growth inhibition of human A549 cells; assay type: functional, cell-based
PC-3 = test: Antitumor activity against human PC3 cells wenografted in mouse assessed as inhibition of tumor growth at 3 mg/kg/day; assay type: functional; settings: read-out: TGI
[2] = biological target: T1, Serine/threonine-protein kinase PAK 1 (Homo sapiens, UniProt Q13153); test: Inhibition of PAK1 in human A549 cells; assay type: cell-based
[3] = biological target: T1, Serine/threonine-protein kinase PAK 1; test: Inhibition of recombinant human PAK1 by ADP-Glo kinase assay
A549 [4] = test: Growth inhibition of RAS-transformed human A549 cells; assay type: functional, cell-based
[5] = biological target: T1, Serine/threonine-protein kinase PAK 1; test: Inhibition of PAK1 (unknown origin) by cell culture based assay
[6] = Growth stimulation of HFDPC assessed as increase in cell viability incubated for 3 days by MTT assay; assay type: functional, Homo sapiens
Caenorhabditis elegans [7] = test: Increase in lifespan of Caenorhabditis elegans; assay type: functional
[8] = biological target: T1, Serine/threonine-protein kinase PAK 1; test: Inhibition of PAK1 in estrogen-stimulated human MCF7 cells incubated for 48 hrs by immunoblot analysis; assay type: cell-based
[9] = biological target: T2, Serine/threonine-protein kinase PAK 1 (Mus musculus, UniProt O88643); test: Inhibition of PAK1 in v-Ha-RAS-transformed mouse NIH/3T3 cells incubated for 48 hrs by immunoblot analysis
Mus musculus = test: Increase in lifespan of C57BL/6J mouse at 2 mg/kg/day dosed in drinking water; assay type: functional; settings: feed or water
Caenorhabditis elegans [10] = test: Increase in lifespan of Caenorhabditis elegans N2 CGCb under 2 mM H2O2-induced oxidative stress conditions at 1 to 50 mg/L; assay type: functional
[11] = Cytotoxicity in human M8 cells by MTT assay; assay type: functional, cell-based
[12] = Stability assessed as shelf life at 4 degC; assay type: physicochemical
[13] = biological target: T2, Serine/threonine-protein kinase PAK 1; test: Inhibition of PAK1 in v-Ha-RAS-transformed mouse NIH/3T3 cells incubated for 1 hr by immunoblot analysis
[14] = biological target: Mitogen-activated protein kinase kinase kinase 11 (Homo sapiens, UniProt Q16584); test: Inhibition of flag-tagged MLK3 (unknown origin) expressed in human HeLa cells assessed as reduction in enzyme autophosphorylation incubated for 20 mins by immunoprecipitatation; assay type: cell-based
[15] = biological target: T1, Serine/threonine-protein kinase PAK 1; test: Inhibition of PAK1 in human MCF7 cells transfected with constitutively active NH2-terminally truncated C1199 Tiam1 construct; assay type: cell-based
Caenorhabditis elegans [16] = test: Increase in lifespan of Caenorhabditis elegans N2 at 100 uM; assay type: functional
[17] = Potency index, ratio of IC50 for caffeic acid to IC50 for test compound for cytotoxicity in human M8 cells by MTT assay; assay type: functional
[18] = biological target: T1, Serine/threonine-protein kinase PAK 1; test: Inhibition of HA-PAK1 (unknown origin) using histone H4 substrate and [gamma-32P] ATP by autoradiography
Caenorhabditis elegans [19] = test: Increase in lifespan of Caenorhabditis elegans N2 var. Bristol at 40 uM; assay type: functional
Caenorhabditis elegans [20] = test: Increase in lifespan of Caenorhabditis elegans age-1(hx546) at 40 uM; assay type: functional
Protein kinase C (PKC) = test: Inhibition of rat brain PKC using […] derived peptide substrate
[21] = biological target: Serine/threonine-protein kinase PAK 3 (Homo sapiens, UniProt O75914); test: Inhibition of GST-tagged PAK3 (unknown origin) expressed in Escherichia coli using peptide PC9 substrate
[22] = biological target: T1, Serine/threonine-protein kinase PAK 1; test: Inhibition of PAK1 (unknown origin)

T1 sequence (Q13153 whole entry): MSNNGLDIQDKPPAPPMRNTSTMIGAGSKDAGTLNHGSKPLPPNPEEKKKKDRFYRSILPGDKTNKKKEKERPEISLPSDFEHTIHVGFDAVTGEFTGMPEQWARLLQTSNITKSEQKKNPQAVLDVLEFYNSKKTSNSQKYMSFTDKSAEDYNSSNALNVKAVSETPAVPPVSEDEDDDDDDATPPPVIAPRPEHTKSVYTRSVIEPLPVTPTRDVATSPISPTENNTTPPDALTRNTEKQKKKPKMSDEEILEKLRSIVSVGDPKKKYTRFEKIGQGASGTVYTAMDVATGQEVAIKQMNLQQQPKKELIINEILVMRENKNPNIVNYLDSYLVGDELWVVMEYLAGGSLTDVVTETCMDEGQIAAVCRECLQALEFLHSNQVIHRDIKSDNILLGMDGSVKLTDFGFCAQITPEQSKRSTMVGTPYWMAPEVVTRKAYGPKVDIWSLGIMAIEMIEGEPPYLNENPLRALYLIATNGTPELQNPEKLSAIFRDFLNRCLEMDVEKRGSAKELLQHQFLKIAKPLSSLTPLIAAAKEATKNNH
T2 sequence (O88643 whole entry): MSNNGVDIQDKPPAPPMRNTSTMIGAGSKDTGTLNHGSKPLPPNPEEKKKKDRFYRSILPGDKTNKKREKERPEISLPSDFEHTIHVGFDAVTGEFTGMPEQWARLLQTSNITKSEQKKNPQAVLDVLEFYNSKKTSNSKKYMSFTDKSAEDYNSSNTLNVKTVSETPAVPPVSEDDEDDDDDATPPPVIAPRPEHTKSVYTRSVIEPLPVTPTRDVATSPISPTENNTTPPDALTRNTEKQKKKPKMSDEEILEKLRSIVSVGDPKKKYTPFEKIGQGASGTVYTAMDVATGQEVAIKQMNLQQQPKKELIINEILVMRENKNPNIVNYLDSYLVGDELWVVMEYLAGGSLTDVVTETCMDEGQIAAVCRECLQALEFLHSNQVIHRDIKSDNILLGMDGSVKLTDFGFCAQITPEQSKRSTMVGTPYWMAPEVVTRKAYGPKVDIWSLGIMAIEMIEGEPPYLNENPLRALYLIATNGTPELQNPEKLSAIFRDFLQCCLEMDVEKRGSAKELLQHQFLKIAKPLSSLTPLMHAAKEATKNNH
Sequence of Mitogen-activated protein kinase kinase kinase 11 (Q16584 whole entry, the tested form may be a part): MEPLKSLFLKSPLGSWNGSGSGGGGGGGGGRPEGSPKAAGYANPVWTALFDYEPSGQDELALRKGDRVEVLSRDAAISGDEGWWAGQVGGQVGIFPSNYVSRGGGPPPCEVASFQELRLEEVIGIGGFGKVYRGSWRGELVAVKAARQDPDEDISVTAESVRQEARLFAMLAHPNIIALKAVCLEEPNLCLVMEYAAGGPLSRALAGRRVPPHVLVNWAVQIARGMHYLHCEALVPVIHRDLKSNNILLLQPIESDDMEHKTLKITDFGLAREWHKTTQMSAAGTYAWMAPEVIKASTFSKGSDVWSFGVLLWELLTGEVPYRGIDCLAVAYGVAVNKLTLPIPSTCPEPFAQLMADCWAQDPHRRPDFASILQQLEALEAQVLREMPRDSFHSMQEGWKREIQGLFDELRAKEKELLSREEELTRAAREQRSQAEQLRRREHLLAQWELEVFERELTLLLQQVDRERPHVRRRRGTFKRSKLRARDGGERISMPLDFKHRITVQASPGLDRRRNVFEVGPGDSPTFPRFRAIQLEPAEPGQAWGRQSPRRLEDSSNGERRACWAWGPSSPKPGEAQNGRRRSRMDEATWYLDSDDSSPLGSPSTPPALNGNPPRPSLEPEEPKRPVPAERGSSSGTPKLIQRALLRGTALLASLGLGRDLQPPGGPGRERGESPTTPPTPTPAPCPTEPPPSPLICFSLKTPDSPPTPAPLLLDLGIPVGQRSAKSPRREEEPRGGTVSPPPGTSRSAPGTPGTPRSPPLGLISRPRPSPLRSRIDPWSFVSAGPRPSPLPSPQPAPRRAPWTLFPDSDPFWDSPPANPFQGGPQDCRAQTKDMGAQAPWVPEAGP
Sequence of Serine/threonine-protein kinase PAK 3 (O75914 whole entry): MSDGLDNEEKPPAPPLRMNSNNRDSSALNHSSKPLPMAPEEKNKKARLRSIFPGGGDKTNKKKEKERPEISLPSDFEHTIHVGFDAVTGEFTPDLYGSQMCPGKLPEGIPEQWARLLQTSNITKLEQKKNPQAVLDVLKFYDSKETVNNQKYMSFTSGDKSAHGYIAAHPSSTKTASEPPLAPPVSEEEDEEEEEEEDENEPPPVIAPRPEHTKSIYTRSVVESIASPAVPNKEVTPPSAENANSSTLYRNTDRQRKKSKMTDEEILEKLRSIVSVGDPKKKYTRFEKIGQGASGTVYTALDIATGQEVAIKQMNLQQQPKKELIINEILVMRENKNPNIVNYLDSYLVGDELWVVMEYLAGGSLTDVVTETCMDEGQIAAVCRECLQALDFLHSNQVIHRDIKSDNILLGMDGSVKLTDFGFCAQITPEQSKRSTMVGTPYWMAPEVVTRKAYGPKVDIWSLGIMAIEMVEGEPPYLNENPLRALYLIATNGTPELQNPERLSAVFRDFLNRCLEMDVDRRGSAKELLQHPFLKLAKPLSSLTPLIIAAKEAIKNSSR

IC50 (A549 [1]): > 1 µM
Compound: CNc1ncc2cc(-c3ccc(-c4cccc(C)n4)cc3Cl)c(=O)n(C[C@H]3OC[C@H](N)CO3)c2n1

IC50 [2]: 0.5 µM
IC50 (A549 [1]): 0.0134 µM
Compound: COCCn1c2c([n+](Cc3cnccn3)c1C)C(=O)c1ccccc1C2=O [SEPANTRONIUM BROMIDE]
inhibition in vivo at 3 mg/kg/day (PC-3): > 50%

IC50 (A549 [1]): 25 µM
IC50 [5]: 25 µM
Compound: CC(C)=CCc1cc(/C=C/C(=O)O)cc(CC=C(C)C)c1O [ARTEPILLIN]
ED [6]: 20 µM

IC50 (A549 [1]): 0.06 µM
Compound: CCS(=O)(=O)c1cc(Nc2ncc(F)c(N(Cc3ccccc3C#N)c3cc(CO)ccc3C)n2)ccc1N1CCN(C)CC1

IC50 (A549 [1]): 0.225 µM
Compound: COc1ccccc1-n1cc(COC(=O)/C=C/c2ccc(O)c(O)c2)nn1

IC50 (A549 [1]): 0.005 µM
Compound: CC(C)(C)c1cc(/C=C(\C#N)C(N)=S)cc(C(C)(C)C)c1O [TYRPHOSTIN AG 879]

IC50 (A549 [1]): 4 to 7 µM
Compound: CC(C)=CCC/C(C)=C/Cc1c([C@@H]2CC(=O)c3c(O)cc(O)cc3O2)ccc(O)c1O [NYMPHAEOL B]

IC50 (A549 [1]): 1300 µM
Compound: COc1ccc2[nH]cc(CCNC(C)=O)c2c1 [MELATONIN]

IC50 [3]: 15 µM
IC50 (A549 [1]): 30 µM
Compound: Oc1ccc(/C=C/c2cc(O)cc(O)c2)cc1 [RESVERATROL]

IC50 [8]: < 0.001 µM
IC50 [9]: < 0.001 µM
Compound: C/C=C1\NC(=O)[C@H]2CSSCC/C=C/[C@H](CC(=O)N[C@H](C(C)C)C(=O)N2)OC(=O)[C@H](C(C)C)NC1=O [ROMIDEPSIN]

IC50 (A549 [1]): 0.005 µM
Compound: CC(C)(C)c1cc(/C=C(\C#N)C(=S)NCCCCCCN)cc(C(C)(C)C)c1O

IC50 (A549 [1]): 4 to 7 µM
Compound: CC(C)=CCC/C(C)=C/Cc1c([C@@H]2CC(=O)c3c(cc(O)c(CC=C(C)C)c3O)O2)ccc(O)c1O [NYMPHAEOL C]

IC50 (A549 [1]): 0.05 to 0.5 µM
Compound: COc1c(C)c2c(c(O)c1C/C=C(\C)CCC(=O)OCCN1CCOCC1)C(=O)OC2 [MYCOPHENOLATE MOFETIL]

IC50 [13]: 1 µM
IC50 [14]: 0.02 µM
IC50 (A549 [1]): 1 µM
IC50 (A549 [4]): 1 µM
Compound: CCSCc1ccc2c(c1)c1c3c(c4c5cc(CSCC)ccc5n5c4c1n2C1C[C@](O)(C(=O)OC)[C@]5(C)O1)CNC3=O

IC50 [15]: 4 µM
Compound: Cc1cc(C)cc(NC(=N)Nc2ccccc2C(F)(F)F)c1

IC50 (Protein kinase C (PKC)): 0.001 µM
IC50 [21]: 0.001 µM
Compound: CN[C@@H]1C[C@H]2O[C@@](C)([C@@H]1OC)n1c3ccc(O)cc3c3c4c(c5c6cc(O)ccc6n2c5c31)C(=O)NC4

IC50 (A549 [1]): 0.1 µM
Compound: COc1ccccc1-n1cc(COC(=O)[C@]23CC[C@@H](C)[C@H](C)[C@H]2C2=CC[C@@H]4[C@@]5(C)CC[C@H](O)C(C)(C)[C@@H]5CC[C@@]4(C)[C@]2(C)CC3)nn1

IC50 (A549 [1]): 23 µM
Compound: COc1cc(/C=C/C(=O)CC(=O)/C=C/c2ccc(O)c(OC)c2)ccc1O [CURCUMIN]

IC50 (A549 [1]): 30 µM
IC50 [22]: 1 µM
Compound: Oc1ccc2ccccc2c1SSc1c(O)ccc2ccccc12

IC50 (A549 [1]): 0.25 µM
Compound: CC(C)NC(=O)N1CC[C@H](NC2=Nc3cc(F)ccc3N(CC(F)F)c3ccc(Cl)cc32)C1

Second part, the compound before the results:

Compound: Cc1ccc(-c2nn(C(C)(C)C)c3ncnc(N)c23)cc1
IC50 (A549 [1]): 0.01 µM

Compound: CC(C)(O)/C=C/C(=O)[C@](C)(O)[C@H]1[C@H](O)C[C@@]2(C)[C@@H]3CC=C4[C@@H](C=C(O)C(=O)C4(C)C)[C@]3(C)C(=O)C[C@]12C [CUCURBITACIN I]
IC50 (A549 [1]): 0.14 µM

Compound: CO[C@@H]1[C@@H](O)[C@H](O[C@@H]2[C@@H](O)[C@H](O[C@H]3[C@H](O)[C@@H](O[C@@H]4OC[C@@H](O)[C@H](O)[C@H]4O)[C@H](O[C@H]4[C@H](O[C@H]5CC[C@]6(C)[C@@H]7CCC89C(=O)O[C@@](C)(CCCC(C)C)[C@H]8[C@@H](OC(C)=O)C[C@@]9(C)C7=CC[C@H]6C5(C)C)OC[C@@H](OS(=O)(=O)O)[C@@H]4O)O[C@@H]3C)OC[C@H]2O)O[C@H](CO)[C@H]1O (stereo not given in full)
IC50 [3]: 1 µM
IC50 (A549 [1]): 0.6 to 1.5 µM
IC50 (A549 [4]): 1 µM

Compound: CC(C)=CCC/C(C)=C/Cc1c(O)cc2c(c1O)C(=O)C[C@@H](c1ccc(O)c(O)c1)O2 [NYMPHAEOL A]
IC50 (A549 [1]): 4 to 7 µM

Compound: COc1ccccc1-n1cc(COC(=O)C2CCn3c(C(=O)c4ccccc4)ccc32)nn1 (stereo not given)
ILS (Caenorhabditis elegans [7]): 30%

Compound: C[C@H](CCCCC(=O)O)O[C@@H]1O[C@@H](C)[C@H](O)C[C@H]1O [DAUMONE]
IC50 (A549 [1]): 0.02 µM
ILS at 2 mg/kg/day (Mus musculus): 50%

Compound: CC(C)[C@]12O[C@H]1[C@@H]1O[C@]13[C@]1(O[C@H]1C[C@H]1C4=C(CC[C@@]13C)C(=O)OC4)[C@@H]2O [TRIPTOLIDE]
ILS (Caenorhabditis elegans [10]): 20%
IC50 (A549 [1]): 0.03 µM
ILS (Caenorhabditis elegans [7]): 20%

Compound: CC(=O)CCC=C(C)CCC=C(C)CCC=C(C)CCC=C(C)C
IC50 (A549 [1]): 10 µM

Compound: O=C(O)/C=C/c1ccc(O)c(O)c1 [CAFFEIC ACID]
IC50 [11]: 100 µM

Compound: CC(C)[C@]12O[C@H]1[C@@H]1O[C@]13[C@]1(O[C@H]1C[C@H]1C4=C(CC[C@@]13C)C(=O)OC4)[C@@H]2OCOP(=O)([O-])[O-].[Na+].[Na+] [MINNELIDE]
Stability [12]: 2 yr

Compound: O=C(/C=C/c1ccc(O)c(O)c1)OCCc1ccccc1 [CAFFEIC ACID PHENETHYL ESTER]
Activity (Caenorhabditis elegans [16]): 15%
IC50 (A549 [1]): 10 µM
IC50 [11]: 10 µM
Ratio IC50 [17]: 10

Compound: CCCCCC(=O)c1c(O)cc(OC)c(Cl)c1O
IC50 [18]: 2.5 µM
IC50 (A549 [1]): 2 to 3 µM

Compound: CC1=C(/C=C/C(C)=C/C=C/C(C)=C/C=C/C=C(C)/C=C/C=C(C)/C=C/C2=C(C)C(=O)C(O)CC2(C)C)C(C)(C)CC(O)C1=O (stereo not given)
Activity (Caenorhabditis elegans [19]): 16 - 30%
IC50 (A549 [1]): 40 µM
Activity (Caenorhabditis elegans [20]): 16 - 30%
